{
  "source": "patent US5532229A",
  "about": "“Topical administration of vitamin D to mammals” (priority 1994, dated 1996)",
  "key": {"[1]": {"assay": "Experiment 3: vitamin D-binding capacity of serum (specific uptake of [3H]-25(OH)D3)", "assay_type": "in vivo, rat", "settings": "6 weeks", "experimental": "Male, Wistar rats were obtained at 120-130 g, and placed on a 0.01% calcium, 0.7% phosphate diet that was vitamin D deficient (Teklad Test Diets, Madison, WI) this was for one week to help deplete vitamin D stores. For the next three weeks the rats were fed the vitamin D-deficient diet, but with normal, 0.5%, calcium. Starting with these 3 weeks, the rats were divided into four vitamin D3 -treatment groups, initially, nine rats per group: group a) supplemented once weekly with 0.6 μg vitamin D3 (average dose, 0.08 μg/day); group b) supplemented once every second day with vitamin D3 to provide 2 nmol/day, i.e., each dose was 4 nmol of vitamin D3; group c) supplemented once every second day with vitamin D3 to provide 8 μg/day. The preceding groups all received the vitamin D3 through an infant-feeding tube inserted through the mouth into the stomach. One group, d), received its vitamin D3 in the ethanol applied onto a shaved 2 cm×2 cm patch of skin on the back, this was done every second day to provide vitamin D3 at 8 μg/day. The volume of each dose of vitamin D3 given was adjusted so that the stated doses are per 250 g body weight. Over a second 3-week period while maintaining the described vitamin D3 dosing regimens, diet calcium content was changed weekly and blood sampling was started (that is, changes in calcium and sampling was from weeks 4 to 6, inclusive, of receiving the appropriate vitamin D3 supplement). Diet calcium was first dropped to 0.01% then raised to 1.5% and finally dropped again to 0.01%. For each week of dietary calcium manipulation, blood was obtained at day zero (the day of but just prior to the change in calcium), and days 1, 3, and 7 after the change. During the first week, 0.5 mL of blood was taken on the first two of these days and anticoagulated with heparin, the cells were isolated and resuspended in normal rat plasma and reinjected into the femoral vein. […] For the subsequent samplings, only 0.2-0.3 mL of blood was taken by bleeding from the tail into precalibrated microcentrifuge tubes. […]\n(§1) Biochemical measurements. 1,25(OH)2 D3 in serum was measured by calf-thymus receptor-binding assay after initial purification of 1,25(OH)2 D3 with C18-OH cartridges (5). For the serum volumes that were minimal, serum was measured out in 50 μL increments, and the final result was adjusted for the volume of sample analyzed. […] The material eluting as 1,25(OH)2 D3 was evaporated and redissolved in acetonitrile: water for further purification with C18-OH cartridges and quantitation by thymus receptor assay, as described for serum. Renal 24-hydroxylase was measured by incubating mitochondria with [^3 H]-25(OH)D3 as substrate (Vieth and Fraser, J Biol Chem. 254:12455-12460;1979). […]"}, "[2]": {"tested_on": "24-hydroxylase", "assay": "Experiment 3: 24-hydroxylase in renal mitochondria", "assay_type": "in vivo, rat", "settings": "for Renal mitochondria 24-hydroxylase: 6 weeks", "experimental": "Male, Wistar rats were obtained at 120-130 g, and placed on a 0.01% calcium, 0.7% phosphate diet that was vitamin D deficient (Teklad Test Diets, Madison, WI) this was for one week to help deplete vitamin D stores. For the next three weeks the rats were fed the vitamin D-deficient diet, but with normal, 0.5%, calcium. Starting with these 3 weeks, the rats were divided into four vitamin D3 -treatment groups, initially, nine rats per group: group a) supplemented once weekly with 0.6 μg vitamin D3 (average dose, 0.08 μg/day); group b) supplemented once every second day with vitamin D3 to provide 2 nmol/day, i.e., each dose was 4 nmol of vitamin D3; group c) supplemented once every second day with vitamin D3 to provide 8 μg/day. The preceding groups all received the vitamin D3 through an infant-feeding tube inserted through the mouth into the stomach. One group, d), received its vitamin D3 in the ethanol applied onto a shaved 2 cm×2 cm patch of skin on the back, this was done every second day to provide vitamin D3 at 8 μg/day. The volume of each dose of vitamin D3 given was adjusted so that the stated doses are per 250 g body weight. Over a second 3-week period while maintaining the described vitamin D3 dosing regimens, diet calcium content was changed weekly and blood sampling was started (that is, changes in calcium and sampling was from weeks 4 to 6, inclusive, of receiving the appropriate vitamin D3 supplement). Diet calcium was first dropped to 0.01% then raised to 1.5% and finally dropped again to 0.01%. For each week of dietary calcium manipulation, blood was obtained at day zero (the day of but just prior to the change in calcium), and days 1, 3, and 7 after the change. During the first week, 0.5 mL of blood was taken on the first two of these days and anticoagulated with heparin, the cells were isolated and resuspended in normal rat plasma and reinjected into the femoral vein. […] For the subsequent samplings, only 0.2-0.3 mL of blood was taken by bleeding from the tail into precalibrated microcentrifuge tubes. In this way, the bleeds prior to sacrifice removed a net total of less than 2 mL of blood, that is, less than or equal to 10% of the blood volume. Samples of daytime urine was collected into microfuge tubes that were fastened to the cones of metabolic collection funnels designed to hang under the wire cages. The cages and cones were rinsed with 0.1 mol/L hydrochloric acid prior to each collection. To eliminate contamination of the urine with diet, stool or water, the rats were placed into these separate cages only during the urine-collection period, until about 1 mL urine was present in the microfuge tube, this was typically within 5 min to one hour.\nBiochemical measurements. 1,25(OH)2 D3 in serum was measured by calf-thymus receptor-binding assay after initial purification of 1,25(OH)2 D3 with C18-OH cartridges (5). For the serum volumes that were minimal, serum was measured out in 50 μL increments, and the final result was adjusted for the volume of sample analyzed. To measure 1α-hydroxylase in renal mitochondria, the incubation was as described previously, except the substrate was 20 μmol/L nonradioactive 25(OH)D3. The assay was stopped by addition of 2.5 mL methanol. To monitor recovery of 1,25 (OH)2 D3, 2000 cpm of [^3 H]--1,25(OH)2 D3 were added in 50 μL ethanol prior to further extraction with two additions of 1.25 mL methylene chloride. The methylene chloride layer was taken and evaporated to dryness, redissolved in hexane, isopropanol, methanol (90:9: 1) for purification by HPLC, Zorbax-Sil column. The material eluting as 1,25(OH)2 D3 was evaporated and redissolved in acetonitrile: water for further purification with C18-OH cartridges and quantitation by thymus receptor assay, as described for serum. Renal 24-hydroxylase was measured by incubating mitochondria with [^3 H]-25(OH)D3 as substrate (Vieth and Fraser, J Biol Chem. 254:12455-12460;1979). […]"}, "[3]": {"assay": "Experiment 3: serum 1,25(OH)2 D3 during changes in dietary calcium", "assay_type": "in vivo, Male Wistar rats", "excerpt": "Efficacy in the long-term: ability of oral and dermal vitamin D3 delivery to influence serum 1,25(OH)2 D3 levels in response to changes in dietary calcium.\nMale, Wistar rats were obtained at 120-130 g, and placed on a 0.01% calcium, 0.7% phosphate diet that was vitamin D deficient (Teklad Test Diets, Madison, WI) this was for one week to help deplete vitamin D stores. For the next three weeks the rats were fed the vitamin D-deficient diet, but with normal, 0.5%, calcium. […]\nas §1, with “serum.” for “serum. Renal 24-hydroxylase was measured by incubating mitochondria with [^3 H]-25(OH)D3 as substrate (Vieth and Fraser, J Biol Chem. 254:12455-12460;1979).”"}, "[4]": {"assay": "Experiment 4: short-term serum 25(OH)D3 response to increasing vitamin D3 doses", "assay_type": "in vivo, rats", "settings": "first 48 hours", "experimental": "Each point represents the mean ±SEM of 7 normal, 250-g rats;\nToxicity: Short-term responses to increasing doses of vitamin D3 given dermally or by gastric tube.\nTo compare the efficacy of increasing doses of vitamin D3 in the short term. A fatal oral vitamin D3 dose is 14 days of 2600 μg/day (Sheppard RM and DeLuca HF, Arch Biochem Biophys 1980; 202: 43-55). The present experiment was designed to compare effects of doses up to this level, given by gastric tube or dermally."}},
  "note": "Entries after “also recorded” stand apart in the source; their conditions may differ.",
  "data": [
    {"compound": "C=C1CC[C@H](O)C/C1=C/C=C1\\CCC[C@]2(C)[C@@H]([C@H](C)CCCC(C)C)CC[C@@H]12", "note": "[vitamin D3]", "values": [
      {"measurement": "Binding Capacity for 25(OH)D3", "setting": "[1]; 0.08 μg/day diet", "value": 7.1, "unit": "µmol/L"},
      {"measurement": "Binding Capacity for 25(OH)D3", "setting": "[1]; 0.8 μg/day G1 (gastric)", "value": 6.93, "unit": "µmol/L"},
      {"measurement": "Binding Capacity for 25(OH)D3", "setting": "[1]; 8 μg/day G1 (gastric)", "value": 7.13, "unit": "µmol/L"},
      {"measurement": "Binding Capacity for 25(OH)D3", "setting": "[1]; 8 μg/day dermal", "value": 7.96, "unit": "µmol/L"},
      {"measurement": "difference between the two routes in activities of renal enzymes (24-hydroxylase)", "setting": "[2]; 20 nmol/250 g/day", "value": "no significant difference between the two routes"},
      {"measurement": "Renal mitochondria 24-hydroxylase", "setting": "[2]; 0.08 μg/day diet", "value": 1.34, "unit": "pmol/mg/mi"},
      {"measurement": "Renal mitochondria 24-hydroxylase", "setting": "[2]; 0.8 μg/day G1 (gastric)", "value": 3.67, "unit": "pmol/mg/mi"},
      {"measurement": "Renal mitochondria 24-hydroxylase", "setting": "[2]; 8 μg/day G1 (gastric)", "value": 8.88, "unit": "pmol/mg/mi"},
      {"measurement": "Renal mitochondria 24-hydroxylase", "setting": "[2]; 8 μg/day dermal", "value": 6.26, "unit": "pmol/mg/mi"},
      {"measurement": "24-hydroxylase in kidney", "setting": "[2]; 8 μg/day, gastric and dermal, vs groups with less vitamin D3", "value": "increased 24-hydroxylase in kidney"},
      {"measurement": "difference between the two routes in suppression of serum 1,25(OH)2 D3 levels", "setting": "[3]; 20 nmol/250 g/day", "value": "no significant difference between the two routes"},
      {"measurement": "serum 1,25(OH)2 D3, effect of supplementation", "setting": "[3]; 8 μg/day, gastric or dermal, all levels of calcium intake", "value": "lower serum 1,25(OH)2 D3 concentrations; also recorded: lower serum 1,25(OH)2 D3 at every level of calcium intake"},
      {"measurement": "serum 25(OH)D3 vs dose", "setting": "[4]; dermal, 800 to 2600 μg", "value": "does not parallel the vitamin D3 dose beyond the 800 μg (2000 nmol)/day dose; also recorded: striking plateau"},
      {"measurement": "serum 25(OH)D3 vs dose", "setting": "[4]; gastric, up to 2600 μg", "value": "parallels the vitamin D3 dose; also recorded: increased in a direct parallel to the dose"}
    ]}
  ]
}
